Laboratory results reported in patent publication US20220307013A1, “GENE FRAGMENT OVEREXPRESSION SCREENING METHODOLOGIES, AND USES THEREOF” (priority 2019, published 2022).
pIC50: −log10 of the molar value. Entries after “also recorded” stand apart in the source; their conditions may differ. Where no end group is shown, it is not given here.

Key:
H929 = assay: Cell proliferation assay (CellTiter-Glo), H929; type: cell-based; conditions: H929, Human Multiple Myeloma, peptides 100 μM-0.2 μM, 72 hrs
Description: (§1) Cell Proliferation Assay. The Tat-RAF1-73, Tat-RAF1-78, Tat-EGFR-697 and Tat-Flag peptides were tested for growth inhibition in an in vitro cell proliferation assay. The assay tested the peptides against ten tumor cell lines and four non-tumor cell lines (Primary Fibroblasts, CCD 841 CoN, human umbilical vein cells and Human Hepatocytes). Cells were plated in a 384 well plate and allowed to grow for 24 hrs. Peptides were then added to cultures at a final concentration range of 100 μM-0.2 μM. Cells and peptides were then reacted for 72 hrs, after which the CellTiter-Glo Luminescent Cell Viability Assay kit (Promega) was used to assess cytotoxicity of therapeutic peptides. IC50 values were determined by the percent cell growth of the untreated (vehicle) control calculated from the luminescence signals compared to test wells. The surviving fraction of cells is determined by dividing the mean luminescence values of the test agents by the mean luminescence values of the untreated control. The inhibitory concentration value, IC50, for the test agents and control was estimated using Prism 8 software (GraphPad Software, Inc.) by curve- fitting the data using the non-linear regression analysis.

SNU398 = assay: Cell proliferation assay (CellTiter-Glo), SNU398; type: cell-based; conditions: SNU398, RAF1 mRNA (Log2) 6.07, 72 hrs
Description: as §1

Jurkat = assay: Cell proliferation assay (CellTiter-Glo), Jurkat; type: cell-based; conditions: RAF1 mRNA (Log2) 6.05, 72 hrs
Description: as §1

HUH6-luc = assay: Cell proliferation assay (CellTiter-Glo), HUH6-luc; type: cell-based; conditions: RAF1 mRNA (Log2) 6.05, 72 hrs
Description: as §1

Colo205 = assay: Cell proliferation assay (CellTiter-Glo), Colo205; type: cell-based; conditions: Colo205, Human Colon, 72 hrs
Description: as §1

A549 = assay: Cell proliferation assay (CellTiter-Glo), A549; type: cell-based; conditions: A549, RAF1 mRNA (Log2) Negative, 72 hrs
Description: as §1

MDA-MB-231 = assay: Cell proliferation assay (CellTiter-Glo), MDA-MB-231; type: cell-based; conditions: MDA-MB-231, EGFR mRNA (Log2) 4.78, 72 hrs
Description: as §1

HT1376 = assay: Cell proliferation assay (CellTiter-Glo), HT1376; type: cell-based; conditions: HT1376, EGFR mRNA (Log2) 5., 72 hrs, starred value was averaged using >100 μM value for one trial result
Description: as §1

FaDu = assay: Cell proliferation assay (CellTiter-Glo), FaDu; type: cell-based; conditions: EGFR mRNA (Log2) 6.28, 72 hrs
Description: as §1

SK-MEL-5 = assay: Cell proliferation assay (CellTiter-Glo), SK-MEL-5; type: cell-based; conditions: SK-MEL-5, EGFR mRNA (Log2) 5.92, 72 hrs
Description: as §1

Primary Fibroblasts = assay: Cell proliferation assay (CellTiter-Glo), Primary Fibroblasts; type: cell-based; conditions: Skin Fibroblast (non-tumor), 72 hrs
Description: as §1

CCD 841 CoN = assay: Cell proliferation assay (CellTiter-Glo), CCD 841 CoN; type: cell-based; conditions: Normal Human Colon (non-tumor), 72 hrs
Description: as §1

Human Hepatocytes = assay: Cell proliferation assay (CellTiter-Glo), Human Hepatocytes; type: cell-based; conditions: Human Hepatocytes (non-tumor), 72 hrs
Description: as §1

[1] = system: Human umbilical vein endothelial cells (HUVEC); assay: Cell proliferation assay (CellTiter-Glo), HUVEC; type: cell-based; conditions: Normal endothelial (non-tumor), 72 hrs
Description: as §1

[2] = system: ten tumor cell lines and four non-tumor cell lines; assay: Cell proliferation assay (CellTiter-Glo), summary over the cell panel; type: cell-based; conditions: any of the cells screened
Description: as §1
Ten cancer cell lines were screened as well as […] non-cancer cell types (e.g. primary fibroblasts, CCD 841 CoN, and human hepatocytes). […]

[3] = system: triple-negative breast cancer cell growth; assay: Inhibition of cell growth by drug-like peptides (summary statements); type: cell-based; conditions: compared with FDA approved small molecules
Description: Engineering Peptides for Exogenous Delivery. Peptides shown in FIG. 3B were fused to an N-terminal cell penetrating motif via a (GS)3 linker sequence (Table 5) and chemically synthesized by GenScript's Custom Peptide Synthesis service at crude purity. For dose response experiments, cells were plated in 96 well plates (n=4) at 50% confluency and peptides were added at the indicated concentrations with cell viability quantified after 24hrs via the WST-8 assay. Cell viability was normalized to that of an untreated control on the same plate.

MCF-7 cells = assay: Arrayed validation of lentivirally delivered gene fragments, WST-8 cell growth, MCF-7
Description: (§2) All cell lines used were cultured in DMEM media supplemented with 10% FBS. The fitness impact of highly depleted gene fragments was tested in an arrayed format via a WST-8 (Dojindo) cell growth assay. […] Cells were transduced at an MOI of 4 and switched to puromycin containing media after 48 hours. Following 24 hours of puromycin selection 1,500 cells were seeded per well as biological replicates in a 96 well plate. All experimental groups for Hs578T cells had n=4. […] For HEK293T and MCF-7 cells all experimental groups had n=8. 2 μg/ml puromycin was used to select Hs578T and MCF-7 cells, while 3.5 μg/ml puromycin was used to select MDA-MB-231 and HEK293T cells. […] Cell growth was then quantified via absorbance at 450 nm following 1.5 hrs of incubation with WST-8 reagent. A two-tailed P value was then calculated via an unpaired ttest with Welch's correction.

Hs578T cells = assay: Arrayed validation of lentivirally delivered gene fragments, WST-8 cell growth, Hs578T; conditions: 7 days, vs GFP control
Description: as §2

HEK293T cells = assay: Arrayed validation of lentivirally delivered gene fragments, WST-8 cell growth, HEK293T
Description: as §2

MDA-MB-231 cells = assay: Arrayed validation of lentivirally delivered gene fragments, WST-8 cell growth, MDA-MB-231; conditions: 7 days, vs GFP control
Description: as §2

Sequence “GRKKRRQRRRPPQGSGSGSDYKDHDGDYKDHDIDYKDDDDK [Tat-Flag, reference compound]” has a pIC50 (H929) of less than 4.00, a pIC50 (SNU398) of less than 4.00 and a pIC50 (Jurkat) of less than 4.00. The pIC50 (HUH6-luc) was less than 4.00, the pIC50 (Colo205) was less than 4.00 and the pIC50 (A549) was less than 4.00. For the same sequence, the pIC50 (MDA-MB-231) was less than 4.00, the pIC50 (HT1376) was less than 4.00 and the pIC50 (FaDu) was less than 4.00. For the same sequence, the pIC50 (SK-MEL-5) was less than 4.00, the pIC50 (Primary Fibroblasts) was less than 4.00 and the pIC50 (CCD 841 CoN) was less than 4.00. The pIC50 (Human Hepatocytes) was less than 4.00, the pIC50 [1] was less than 4.00 and the “activity in the cells screened” value [2] was “no activity”.
“GRKKRRQRRRPPQGSGSGSMEAPNQALLRILKETEFKKIKVLGSGAFGTVYKGLWIPEGE [Tat-EGFR-697]” gave a pIC50 (H929) of 5.29, a pIC50 (SNU398) of 4.53 and a pIC50 (Jurkat) of 4.39. For the same sequence, the pIC50 (HUH6-luc) was 4.13, the pIC50 (Colo205) was 4.70 and the pIC50 (A549) was 4.22. For the same sequence, the pIC50 (MDA-MB-231) was 4.25, the pIC50 (HT1376) was 4.02 and the pIC50 (FaDu) was 4.05. For the same sequence, the pIC50 (SK-MEL-5) was 4.56, the pIC50 (Primary Fibroblasts) was 4.82 and the pIC50 (CCD 841 CoN) was less than 4.00. For the same sequence, the pIC50 (Human Hepatocytes) was 4.94 and the pIC50 [1] was 4.85.
For “MEAPNQALLRILKETEFKKIKVLGSGAFGTVYKGLWIPEGE [EGFR-697]”, the “triple-negative breast cancer cell growth in vitro” value [3] was “opposed triple-negative breast cancer cell growth in vitro as effectively as some FDA approved small molecules”, the “cell growth after lentiviral overexpression (WST-8)” value (from here on “cell growth … (WST-8)”) (MCF-7 cells) was “reduced fitness defect” and the “cell growth … (WST-8)” value (Hs578T cells) was “deleterious to cell growth; also recorded: significant growth arrest”. The “cell growth … (WST-8)” value (HEK293T cells) was “no growth defects” and the “cell growth … (WST-8)” value (MDA-MB-231 cells) was “deleterious to cell growth”.
For “MFVDEYDPTIEDSYRKQVVIDGETCLLDILDTAGKEEYSAM [KRAS61K-7]”, the “cell growth … (WST-8)” value (Hs578T cells) was “significantly reduced cell growth” and the “cell growth … (WST-8)” value (MDA-MB-231 cells) was “significantly reduced cell growth”.
With “MIQNHFVDEYDPTIEDSYRKQVVIDGETCLLDILDTAGKEE [KRAS61K-3]” the “cell growth … (WST-8)” value (Hs578T cells) was “significantly reduced cell growth” and the “cell growth … (WST-8)” value (MDA-MB-231 cells) was “significantly reduced cell growth”.
“MPTIEDSYRKQVVIDGETCLLDILDTAGKEEYSAMRDQYMR [KRAS61K-13]” was tested, and the “cell growth … (WST-8)” value (Hs578T cells) was “significantly reduced cell growth” and the “cell growth … (WST-8)” value (MDA-MB-231 cells) was “significantly reduced cell growth”.
“MRNGMSLHDCLMKALKVRGLQPECCAVFRLLHEHKGKKARL (cysteines drawn unpaired) [RAF1-73]” was tested, and the “triple-negative breast cancer cell growth in vitro” value [3] was “opposed triple-negative breast cancer cell growth in vitro as effectively as some FDA approved small molecules” and the “cell growth … (WST-8)” value (HEK293T cells) was “no growth defects”.
